Reference: patent US6046171A, “6,11-bridged erythromycin derivatives” (priority 1998, dated 2000)
In brackets after ≈: the same amount, converted by molar mass.

Assays:
Format in all cases: cell-based
[1] = tested on: Enterococcus faecium ATCC 8Q43; assay: in vitro antibacterial MIC, agar dilution; conditions: organism code II; 35-37° C., 20 to 24 hours; unit assumed
Description: (§1) Representative compounds of the present invention were assayed in vitro for antibacterial activity as follows: Twelve petri dishes containing successive aqueous dilutions of the test compound mixed with 10 mL of sterilized Brain Heart Infusion (BHI) agar (Difco 0418-01-5) were prepared. Each plate was inoculated with 1:100 (or 1:10 for slow-growing strains, such as Micrococcus and Streptococcus) dilutions of up to 32 different microorganisms, using a Steers replicator block. […] In addition, a control plate, using BHI agar containing no test compound, was prepared and incubated at the beginning and end of each test.
(§2) An additional plate containing a compound having known susceptibility patterns for the organisms being tested and belonging to the same antibiotic class as the test compound was also prepared and incubated as a further control, as well as to provide test-to-test comparability.
(§3) After incubation, each plate was visually inspected. The minimum inhibitory concentration (MIC) was defined as the lowest concentration of drug yielding no growth, a slight haze, or sparsely isolated colonies on the inoculum spot as compared to the growth control.

[2] = tested on: Streptococcus bovis A-5169; assay: in vitro antibacterial MIC, agar dilution; conditions: organism code JJ; 35-37° C., 20 to 24 hours; unit assumed
Description: as §1, §2, §3

[3] = tested on: Haemophilis Influenzae DILL AMP R; assay: in vitro antibacterial MIC, agar dilution; conditions: organism code WW; 35-37° C., 20 to 24 hours; unit assumed
Description: as §1, §2, §3

[4] = tested on: Streptococcus Pheumoniae 5979; assay: in vitro antibacterial MIC, agar dilution; conditions: organism code ZZ; 35-37° C., 20 to 24 hours; unit assumed
Description: as §1, §2, §3

[5] = tested on: Streptococcus Pheumoniae 5649; assay: in vitro antibacterial MIC, agar dilution; conditions: organism code ZZA; 35-37° C., 20 to 24 hours; unit assumed
Description: as §1, §2, §3

[6] = tested on: Staphylococcus aureus ATCC 6538P; assay: in vitro antibacterial MIC, agar dilution (BHI agar, Steers replicator); conditions: organism code AA; 35-37° C., 20 to 24 hours; unit assumed
Description: as §1, §2, §3

[7] = tested on: Staphylococcus aureus CMX 553; assay: in vitro antibacterial MIC, agar dilution; conditions: organism code FF; 35-37° C., 20 to 24 hours; unit assumed
Description: as §1, §2, §3

[8] = tested on: Micrococcus luteus ATCC 9341; assay: in vitro antibacterial MIC, agar dilution; conditions: organism code OO; 35-37° C., 20 to 24 hours; unit assumed
Description: as §1, §2, §3

[9] = tested on: Staphylococcus aureus CMX 642A; assay: in vitro antibacterial MIC, agar dilution; conditions: organism code DD; 35-37° C., 20 to 24 hours; unit assumed
Description: as §1, §2, §3

[10] = tested on: Streptococcus agalactiae CMX 508; assay: in vitro antibacterial MIC, agar dilution; conditions: organism code KK; 35-37° C., 20 to 24 hours; unit assumed
Description: as §1, §2, §3

[11] = tested on: Staphylococcus epidermidis 3519; assay: in vitro antibacterial MIC, agar dilution; conditions: organism code HH; 35-37° C., 20 to 24 hours; unit assumed
Description: as §1, §2, §3

[12] = tested on: Staphylococcus aureus NCTC10649M; assay: in vitro antibacterial MIC, agar dilution; conditions: organism code EE; 35-37° C., 20 to 24 hours; unit assumed
Description: as §1, §2, §3

[13] = tested on: Staphylococcus aureus A5177; assay: in vitro antibacterial MIC, agar dilution; conditions: organism code BB; 35-37° C., 20 to 24 hours; unit assumed
Description: as §1, §2, §3

Escherichia coli SS = assay: in vitro antibacterial MIC, agar dilution; conditions: organism code RR; 35-37° C., 20 to 24 hours; unit assumed
Description: as §1, §2, §3

[14] = tested on: Streptococcus pyogenes EES61; assay: in vitro antibacterial MIC, agar dilution; conditions: organism code LL; 35-37° C., 20 to 24 hours; unit assumed
Description: as §1, §2, §3

[15] = tested on: Nocardia Asteroides ATCC9970; assay: in vitro antibacterial MIC, agar dilution; conditions: organism code VV; 35-37° C., 20 to 24 hours; unit assumed
Description: as §1, §2, §3

[16] = tested on: Streptococcus pyogenes PIU 2548; assay: in vitro antibacterial MIC, agar dilution; conditions: organism code NN; 35-37° C., 20 to 24 hours; unit assumed
Description: as §1, §2, §3

[17] = tested on: Mycobacterium smegmatis ATCC 114; assay: in vitro antibacterial MIC, agar dilution; conditions: organism code UU; 35-37° C., 20 to 24 hours; unit assumed
Description: as §1, §2, §3

[18] = tested on: Micrococcus luteus ATCC 4698; assay: in vitro antibacterial MIC, agar dilution; conditions: organism code PP; 35-37° C., 20 to 24 hours; unit assumed
Description: as §1, §2, §3

[19] = tested on: Streptococcus Pheumoniae ATCC6303; assay: in vitro antibacterial MIC, agar dilution; conditions: organism code XX; 35-37° C., 20 to 24 hours; unit assumed
Description: as §1, §2, §3

Row | SMILES | MIC [1] | MIC [2] | MIC [3] | MIC [4] | MIC [5] | MIC [6] | MIC [7] | MIC [8] | MIC [9] | MIC [10] | MIC [11] | MIC [12] | MIC [13] | MIC (Escherichia coli SS) | MIC [14] | MIC [15] | MIC [16] | MIC [17] | MIC [18] | MIC [19]
1 | CC[C@H]1OC(=O)[C@H](C)[C@@H](O[C@H]2C[C@@](C)(OC)[C@@H](O)[C@H](C)O2)[C@H](C)[C@@H](O[C@@H]2O[C@H](C)C[C@H](N(C)C)[C@H]2O)[C@@]2(C)C[C@@H](C)C(=O)[C@H](C)[C@H]3N(CCCCO2)C(=O)O[C@]13C [Example 15] | 0.1 µg/mL (≈ 0.123 µM) | 0.05 µg/mL (≈ 0.0615 µM) | 32 µg/mL (≈ 39.4 µM) | > 128 µg/mL | 16 µg/mL (≈ 19.7 µM) | – | – | – | – | – | – | – | – | – | – | – | – | – | – | –
2 | CC[C@H]1OC(=O)[C@H](C)C(=O)[C@H](C)[C@@H](O[C@@H]2O[C@H](C)C[C@H](N(C)C)[C@H]2O)[C@@]2(C)C[C@@H](C)C(=O)[C@H](C)[C@H]3N(CC=CCO2)C(=O)O[C@]13C [Example 16] | 0.2 µg/mL (≈ 0.307 µM) | 0.2 µg/mL (≈ 0.307 µM) | 32 µg/mL (≈ 49.2 µM) | > 128 µg/mL | – | 0.39 µg/mL (≈ 0.599 µM) | 0.39 µg/mL (≈ 0.599 µM) | 0.2 µg/mL (≈ 0.307 µM) | 0.39 µg/mL (≈ 0.599 µM) | 0.2 µg/mL (≈ 0.307 µM) | 0.39 µg/mL (≈ 0.599 µM) | 0.39 µg/mL (≈ 0.599 µM) | 0.39 µg/mL (≈ 0.599 µM) | 0.78 µg/mL (≈ 1.2 µM) | 0.2 µg/mL (≈ 0.307 µM) | 0.39 µg/mL (≈ 0.599 µM) | 0.39 µg/mL (≈ 0.599 µM) | 6.2 µg/mL (≈ 9.53 µM) | 0.39 µg/mL (≈ 0.599 µM) | –
3 | CC[C@H]1OC(=O)[C@H](C)[C@@H](O[C@H]2C[C@@](C)(OC)[C@@H](O)[C@H](C)O2)[C@H](C)[C@@H](O[C@@H]2O[C@H](C)C[C@H](N(C)C)[C@H]2O)[C@@]2(C)C[C@@H](C)C(=O)[C@H](C)[C@H]3N(CCC=CCO2)C(=O)O[C@]13C [Example 17] | 0.05 µg/mL (≈ 0.0606 µM) | – | 8 µg/mL (≈ 9.7 µM) | > 128 µg/mL | 8 µg/mL (≈ 9.7 µM) | 0.1 µg/mL (≈ 0.121 µM) | 0.1 µg/mL (≈ 0.121 µM) | 0.02 µg/mL (≈ 0.0242 µM) | 0.2 µg/mL (≈ 0.242 µM) | – | 0.2 µg/mL (≈ 0.242 µM) | 0.2 µg/mL (≈ 0.242 µM) | – | – | 0.02 µg/mL (≈ 0.0242 µM) | 0.02 µg/mL (≈ 0.0242 µM) | – | 0.2 µg/mL (≈ 0.242 µM) | 0.1 µg/mL (≈ 0.121 µM) | –
4 | CC[C@H]1OC(=O)[C@H](C)C(=O)[C@H](C)[C@@H](O[C@@H]2O[C@H](C)C[C@H](N(C)C)[C@H]2O)[C@@]2(C)C[C@@H](C)C(=O)[C@H](C)[C@H]3N(CCC=CCO2)C(=O)O[C@]13C [Example 18] | 0.39 µg/mL (≈ 0.587 µM) | 0.2 µg/mL (≈ 0.301 µM) | 128 µg/mL (≈ 193 µM) | > 128 µg/mL | 2 µg/mL (≈ 3.01 µM) | 0.78 µg/mL (≈ 1.17 µM) | 0.78 µg/mL (≈ 1.17 µM) | 0.39 µg/mL (≈ 0.587 µM) | 0.78 µg/mL (≈ 1.17 µM) | 0.2 µg/mL (≈ 0.301 µM) | – | 0.78 µg/mL (≈ 1.17 µM) | 0.78 µg/mL (≈ 1.17 µM) | – | 0.2 µg/mL (≈ 0.301 µM) | 0.78 µg/mL (≈ 1.17 µM) | – | – | 0.78 µg/mL (≈ 1.17 µM) | 1 µg/mL (≈ 1.5 µM)
5 | CC[C@H]1OC(=O)[C@H](C)[C@@H](O[C@H]2C[C@@](C)(OC)[C@@H](O)[C@H](C)O2)[C@H](C)[C@@H](O[C@@H]2O[C@H](C)C[C@H](N(C)C)[C@H]2O)[C@@]2(C)C[C@@H](C)C(=O)[C@H](C)[C@H]3N(CC(O)CC=CCO2)C(=O)O[C@]13C (stereo partly drawn) [Example 19] | 0.1 µg/mL (≈ 0.117 µM) | 0.02 µg/mL (≈ 0.0234 µM) | 8 µg/mL (≈ 9.36 µM) | > 128 µg/mL | 16 µg/mL (≈ 18.7 µM) | – | – | 0.05 µg/mL (≈ 0.0585 µM) | – | 0.05 µg/mL (≈ 0.0585 µM) | – | – | – | – | 0.05 µg/mL (≈ 0.0585 µM) | 0.05 µg/mL (≈ 0.0585 µM) | 12.5 µg/mL (≈ 14.6 µM) | – | – | –
